From patent US8623860B2, “Azetidine derivatives, pharmaceutical compositions and uses thereof” (Boehringer Ingelheim International GmbH, priority 2011, dated 2014)

What follows are molecules tested against human ACC2 (Homo sapiens (Human), UniProt O00763) (assay: ACC2 assay, spectrophotometric 384 well assay (NADH-linked, coupled lactate dehydrogenase/pyruvate kinase reaction)). Conditions: hACC2 construct lacking the 128 N-terminal amino acids; 25° C., 340 nm, 15 minutes.
Assay type: biochemical
Method: Spectrophotometric 384 Well Assay
Malonyl CoA formation by acetyl CoA carboxylases is stoichometrically linked to the consumption of ATP. ACC2 activity is measured in a NADH-linked kinetic method measuring ADP generated during the ACC reaction using a coupled lactate dehydrogenase/pyruvate kinase reaction.
For biological testing, a human ACC2 construct which lacks the 128 amino acids at the N-terminus for increased solubility (nt 385-6966 in Genbank entry AJ575592) is cloned. The protein is then expressed in insect cells using a baculoviral expression system. Protein purification is performed by anion exchange.
All compounds are dissolved in dimethyl sulfoxide (DMSO) to a concentration of 10 mM.
Assay reactions are then carried out in 384-well plates, with hACC2 in an appropriate dilution and at final assay concentrations (f.c.) of 100 mM Tris (pH 7.5), 10 mM trisodium citrate, 25 mM KHCC3, 10 mM MgCl2, 0.5 mg/ml BSA, 3.75 mM reduced L-glutathione, 15 U/ml lactate dehydrogenase, 0.5 mM phosphoenolpyruvate, 15 U/ml pyruvate kinase, compounds at different concentrations at final DMSO concentrations of 1%.
The enzymatic reaction is then started by addition of a mixture of NADH, acetyl Coenzyme A (both 200 μM f.c.) and ATP (500 uM f.c.). The decrease of the optical density (slope S) is then determined at 25° C. at a wavelength of 340 nm over 15 minutes in a spectrophotometric reader.
Each assay microtiter plate contains wells with vehicle instead of compound as controls for the non-inhibited enzyme (100% CTL; ‘HIGH’) and wells without acetyl-CoA as controls for non-specific NADH degradation (0% CTL; ‘LOW’).
The slope S is used for calculation of % CTL=(S(compound)−S(‘LOW’))/(S(‘HIGH’)−S(‘LOW’))*100. Compounds will give values between 100% CTL (no inhibition) and 0% CTL (complete inhibition).
For IC50 value determination, the sample slope in the presence of the test compound after subtraction of the low controls (S(compound)−S(‘LOW’)) are used.
An IC50 value is derived from the compound slopes at different dosages after subtraction of the low controls (S(compound)−S(‘LOW’)) by non-linear regression curve fitting (equation y=(A+((B−A)/(1+((C/x)^D))))).
In the following table the activity expressed as IC50 (μM) of compounds according to the invention is presented wherein the IC50 values are determined in the ACC2 assay as described hereinbefore. The term “Ex.” refers to the example numbers according to the following experimental section.

Chain of human ACC2 (O00763 129-2458): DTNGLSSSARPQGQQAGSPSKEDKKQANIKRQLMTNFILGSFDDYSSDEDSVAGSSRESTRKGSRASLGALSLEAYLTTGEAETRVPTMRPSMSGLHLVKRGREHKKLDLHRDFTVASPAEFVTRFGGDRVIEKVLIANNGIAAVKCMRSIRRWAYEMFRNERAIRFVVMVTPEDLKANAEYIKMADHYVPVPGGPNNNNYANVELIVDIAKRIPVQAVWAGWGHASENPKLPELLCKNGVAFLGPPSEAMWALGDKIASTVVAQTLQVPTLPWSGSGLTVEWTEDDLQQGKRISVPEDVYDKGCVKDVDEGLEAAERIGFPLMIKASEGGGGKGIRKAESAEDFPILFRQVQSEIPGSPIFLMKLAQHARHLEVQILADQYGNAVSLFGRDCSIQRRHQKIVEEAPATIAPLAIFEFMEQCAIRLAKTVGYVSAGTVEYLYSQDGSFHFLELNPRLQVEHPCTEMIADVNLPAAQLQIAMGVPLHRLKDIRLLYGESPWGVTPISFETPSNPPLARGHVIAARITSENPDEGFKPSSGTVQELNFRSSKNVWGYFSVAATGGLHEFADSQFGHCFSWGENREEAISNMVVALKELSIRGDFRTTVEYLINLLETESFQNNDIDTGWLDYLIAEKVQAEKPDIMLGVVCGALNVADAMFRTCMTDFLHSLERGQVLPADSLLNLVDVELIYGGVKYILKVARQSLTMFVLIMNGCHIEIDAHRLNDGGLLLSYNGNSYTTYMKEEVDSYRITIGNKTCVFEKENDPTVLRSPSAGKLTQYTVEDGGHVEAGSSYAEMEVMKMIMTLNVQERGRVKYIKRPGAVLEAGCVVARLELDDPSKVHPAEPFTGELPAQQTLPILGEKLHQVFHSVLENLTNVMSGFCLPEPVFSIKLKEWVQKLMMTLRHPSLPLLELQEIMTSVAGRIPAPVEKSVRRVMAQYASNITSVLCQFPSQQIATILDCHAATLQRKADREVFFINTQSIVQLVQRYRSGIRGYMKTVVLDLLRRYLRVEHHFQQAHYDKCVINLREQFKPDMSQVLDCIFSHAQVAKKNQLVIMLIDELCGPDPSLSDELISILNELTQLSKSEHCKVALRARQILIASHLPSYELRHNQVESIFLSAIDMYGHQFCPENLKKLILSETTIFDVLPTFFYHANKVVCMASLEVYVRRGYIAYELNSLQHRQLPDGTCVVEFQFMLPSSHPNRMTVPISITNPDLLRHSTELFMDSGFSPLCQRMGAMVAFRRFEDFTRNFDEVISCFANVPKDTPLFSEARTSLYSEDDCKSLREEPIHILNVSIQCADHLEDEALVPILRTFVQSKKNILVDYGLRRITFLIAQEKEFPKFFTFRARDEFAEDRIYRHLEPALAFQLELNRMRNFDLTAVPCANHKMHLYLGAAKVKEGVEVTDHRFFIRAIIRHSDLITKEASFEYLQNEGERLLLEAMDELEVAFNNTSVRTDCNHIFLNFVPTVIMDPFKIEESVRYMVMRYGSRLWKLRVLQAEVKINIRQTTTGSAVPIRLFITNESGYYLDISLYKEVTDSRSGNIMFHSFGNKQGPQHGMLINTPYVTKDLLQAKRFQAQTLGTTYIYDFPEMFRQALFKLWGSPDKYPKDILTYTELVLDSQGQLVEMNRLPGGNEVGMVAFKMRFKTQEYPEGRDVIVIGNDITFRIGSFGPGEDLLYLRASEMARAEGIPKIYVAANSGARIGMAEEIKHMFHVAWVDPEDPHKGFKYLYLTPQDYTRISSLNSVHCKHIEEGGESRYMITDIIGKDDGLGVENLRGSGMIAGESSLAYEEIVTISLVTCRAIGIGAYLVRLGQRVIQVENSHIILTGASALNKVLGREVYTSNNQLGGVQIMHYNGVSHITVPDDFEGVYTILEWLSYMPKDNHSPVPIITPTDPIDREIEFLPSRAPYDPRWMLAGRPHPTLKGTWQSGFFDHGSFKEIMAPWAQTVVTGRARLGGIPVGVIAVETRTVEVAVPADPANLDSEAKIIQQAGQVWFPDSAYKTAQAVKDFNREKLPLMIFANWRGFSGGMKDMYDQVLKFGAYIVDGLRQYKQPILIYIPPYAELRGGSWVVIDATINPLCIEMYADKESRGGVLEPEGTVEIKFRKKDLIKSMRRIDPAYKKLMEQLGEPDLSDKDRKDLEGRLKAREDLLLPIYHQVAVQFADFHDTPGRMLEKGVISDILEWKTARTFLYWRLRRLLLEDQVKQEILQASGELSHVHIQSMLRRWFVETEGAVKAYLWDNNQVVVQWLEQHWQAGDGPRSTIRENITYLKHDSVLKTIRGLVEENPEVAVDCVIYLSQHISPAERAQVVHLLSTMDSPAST

| SMILES | IC50 [nM] |
| --- | --- |
| CCCOc1cc(N2CC(c3ccc(CC(C)NC(C)=O)cc3)C2)ccn1 (stereo not drawn) [Example 1.12] | 610 |
| CC(=O)NC(C)Cc1ccc(C2CN(c3cnc(NC4CCC4)nc3)C2)cc1 (stereo not drawn) [Example 1.07] | 5630 |
| CC(=O)N[C@@H](C)c1ccc(C2CN(c3ccc(C(F)(F)F)cn3)C2)cc1 [Example 2.09] | 450 |
| CC(Cc1ccc(C2CN(c3ccc(OCC4CC4)cc3)C2)cc1)NC(=O)CF (stereo not drawn) [Example 3.14] | 1770 |
| CC(=O)NC(C)CCc1ccc(C2CN(c3ccc4c(c3)OCCO4)C2)cc1 (stereo not drawn) [Example 1.14] | 670 |
| CC(=O)NC(C)CCc1ccc(C2CN(c3ccc(OCC4CC4)cc3)C2)cc1 (stereo not drawn) [Example 1.17] | 190 |
| CC(=O)NC(C)Cc1ccc(C2CN(c3cnc(OC4CCC4)nc3)C2)cc1 (stereo not drawn) [Example 1.06] | 3810 |
| CC(=O)N[C@@H](C)c1ccc(C2CN(c3ncc(C(F)(F)F)cn3)C2)cc1 [Example 2.15] | 850 |
| CCCOc1ccc(N2CC(c3ccc(CC(C)NC(C)=O)cc3)C2)cc1 (stereo not drawn) [Example 1.01, N-(1-(4-(1-(4-Propoxyphenyl)azetidin-3-yl)phenyl)propan-2-yl)acetamide] | 510 |
| CC(=O)NC(C)Cc1ccc(C2CN(c3ccc4c(c3)OCCO4)C2)cc1 (stereo not drawn) [Example 1.13] | 950 |
| CCCOc1ccc(N2CC(c3ccc(CC(C)NC(C)=O)cc3)C2)c(OC)c1 (stereo not drawn) [Example 1.11] | 600 |
| CC(=O)N[C@@H](C)c1ccc(C2CN(c3ncc4nc(-c5ccccc5)oc4n3)C2)cc1 [Example 2.07] | 340 |
| CCOc1ccc(N2CC(c3ccc(C(C)NC(C)=O)cc3)C2)cc1 (stereo not drawn) [Example 1.19] | 1130 |
| CC(=O)N[C@@H](C)c1ccc(C2CN(c3nnc(-c4ccccc4)s3)C2)cc1 [Example 2.11] | 7760 |
| CC(=O)N[C@@H](C)c1ccc(C2CN(c3cccc(C(F)(F)F)n3)C2)cc1 [Example 2.10] | 470 |
| CC(=O)NC(C)Cc1ccc(C2CN(c3ccc(OCC4CC4)cc3)C2)cc1 (stereo not drawn) [Example 1.04] | 630 |
| CC(=O)N[C@@H](C)c1ccc(C2CN(c3ccc4c(c3)OCCCO4)C2)cc1 [Example 1.29] | 780 |
| CCCc1cnc(N2CC(c3ccc(CC(C)NC(C)=O)cc3)C2)nc1 (stereo not drawn) [Example 2.02] | 3790 |
| CC(=O)N[C@@H](C)c1ccc(C2CN(c3ncc(OCC4CC4(F)F)cc3F)C2)cc1 (stereo partly drawn) [Example 1.35] | 180 |
| CCOc1cccc(N2CC(c3ccc([C@H](C)NC(C)=O)cc3)C2)c1 [Example 1.28] | 680 |
| CC(=O)N[C@@H](C)c1ccc(C2CN(c3ccc(OC4CC4)cc3)C2)cc1 [Example 1.25] | 540 |
| CC(=O)N[C@@H](C)c1ccc(C2CN(c3ncc(C4CC4)cn3)C2)cc1 [Example 2.12] | 420 |
| CC(=O)NC(C)CCc1ccc(C2CN(c3cccc(OC(C)C)c3)C2)cc1 (stereo not drawn) [Example 1.18] | 3180 |
| CCOc1ccc(N2CC(c3ccc(CCC(C)NC(C)=O)cc3)C2)cc1 (stereo not drawn) [Example 1.16] | 410 |
| COc1ccc(-c2cnc(N3CC(c4ccc([C@H](C)NC(C)=O)cc4)C3)nc2)cc1 [Example 2.08] | 320 |

Second part, the molecule after the results:

| IC50 [nM] | SMILES |
| --- | --- |
| 1620 | C[C@H](NC(=O)CO)c1ccc(C2CN(c3ccc(OCC4CC4)cc3)C2)cc1 [Example 3.82] |
| 1590 | CC(=O)N[C@@H](C)c1ccc(C2CN(c3ccnc(OCC4CC4)c3)C2)cc1 [Example 5.3] |
| 2700 | CC(C(=O)N[C@@H](C)c1ccc(C2CN(c3ccc(OCC4CC4)cc3)C2)cc1)C(F)(F)F (stereo partly drawn) [Example 3.47] |
| 2790 | Cc1nocc1C(=O)NC(C)Cc1ccc(C2CN(c3ccc(OCC4CC4)cc3)C2)cc1 (stereo not drawn) [Example 3.17] |
| 970 | C=CCC(=O)N[C@@H](C)c1ccc(C2CN(c3ccc4c(c3)OCCO4)C2)cc1 [Example 3.66] |
| 1460 | C[C@H](NC(=O)C1(C#N)CC1)c1ccc(C2CN(c3ccc(OCC4CC4)cc3)C2)cc1 [Example 3.35] |
| 2070 | CC(=O)NCCCC(=O)N[C@@H](C)c1ccc(C2CN(c3ccc(OCC4CC4)cc3)C2)cc1 [Example 3.41] |
| 3050 | COCC(=O)NC(C)Cc1ccc(C2CN(c3ccc(OCC4CC4)cc3)C2)cc1 (stereo not drawn) [Example 3.16] |
| 1640 | CC(=O)Nc1nc(C(=O)N[C@@H](C)c2ccc(C3CN(c4ccc(OCC5CC5)cc4)C3)cc2)cs1 [Example 3.31] |
| 2860 | C[C@H](NC(=O)C1CCCCO1)c1ccc(C2CN(c3ccc(OCC4CC4)cc3)C2)cc1 (stereo partly drawn) [Example 3.27] |
| 1020 | C[C@H](NC(=O)C(F)F)c1ccc(C2CN(c3ccc4c(c3)OCCO4)C2)cc1 [Example 3.70] |
| 1650 | C[C@H](NC(=O)c1cncs1)c1ccc(C2CN(c3ccc4c(c3)OCCO4)C2)cc1 [Example 3.57] |
| 1310 | Cc1ncc(C(=O)N[C@@H](C)c2ccc(C3CN(c4ccc(OCC5CC5)cc4)C3)cc2)s1 [Example 3.40] |
| 470 | Cc1nocc1C(=O)N[C@@H](C)c1ccc(C2CN(c3ccc(OCC4CC4)cc3)C2)cc1 [Example 3.87] |
| 2880 | C=CCC(=O)NC(C)Cc1ccc(C2CN(c3ccc4c(c3)OCCO4)C2)cc1 (stereo not drawn) [Example 3.19] |
| 960 | Cc1oncc1C(=O)NC(C)Cc1ccc(C2CN(c3ccc(OCC4CC4)cc3)C2)cc1 (stereo not drawn) [Example 3.74] |
| 530 | C[C@H](NC(=O)C(C)(F)F)c1ccc(C2CN(c3ccc(OCC4CC4)cc3)C2)cc1 [Example 3.88] |
| 2180 | CC(=O)Nc1cncc(C(=O)N[C@@H](C)c2ccc(C3CN(c4ccc(OCC5CC5)cc4)C3)cc2)c1 [Example 3.51] |
| 2820 | Cc1oncc1C(=O)NC(C)Cc1ccc(C2CN(c3ccc4c(c3)OCCO4)C2)cc1 (stereo not drawn) [Example 3.76] |
| 1000 | CCC(=O)N[C@@H](C)c1ccc(C2CN(c3ccc4c(c3)OCCO4)C2)cc1 [Example 3.68] |
| 1680 | CC(=O)NCCCC(=O)NC(C)Cc1ccc(C2CN(c3ccc(OCC4CC4)cc3)C2)cc1 (stereo not drawn) [Example 3.67] |

| IC50 [nM] | SMILES |
| --- | --- |
| 2360 | CC(=O)Nc1nc(C(=O)N[C@@H](C)c2ccc(C3CN(c4ccc(OCC5CC5)cc4)C3)cc2)co1 [Example 3.54] |
| 1010 | CC(=O)N[C@@H](C)c1ccc(C2CN(c3nc(N(C)CC(F)F)ncc3F)C2)cc1 [Example 4.2] |
| 1760 | CC(C)C(=O)N[C@@H](C)c1ccc(C2CN(c3ccc(OCC4CC4)cc3)C2)cc1 [Example 3.32] |
| 1220 | CC(Cc1ccc(C2CN(c3ccc(OCC4CC4)cc3)C2)cc1)NC(=O)C1(C)CC1 (stereo not drawn) [Example 3.63] |
| 2970 | CC(Cc1ccc(C2CN(c3ccc(OCC4CC4)cc3)C2)cc1)NC(=O)Cc1cc[nH]c1 (stereo not drawn) [Example 3.13] |
| 3010 | C[C@H](NC(=O)c1ccnnc1)c1ccc(C2CN(c3ccc(OCC4CC4)cc3)C2)cc1 [Example 3.58] |
| 2580 | CC(Cc1ccc(C2CN(c3ccc(OCC4CC4)cc3)C2)cc1)NC(=O)C1(C#N)CC1 (stereo not drawn) [Example 3.07] |
| 1730 | CC(=O)Nc1cncc(C(=O)NC(C)Cc2ccc(C3CN(c4ccc(OCC5CC5)cc4)C3)cc2)c1 (stereo not drawn) [Example 3.05] |
| 1400 | C[C@H](NC(=O)c1ccon1)c1ccc(C2CN(c3ccc(OCC4CC4)cc3)C2)cc1 [Example 3.81] |
| 940 | CCC(=O)N[C@@H](C)c1ccc(C2CN(c3ccc(OCC4CC4)cc3)C2)cc1 [Example 3.42] |
| 3010 | Cc1ncsc1C(=O)N[C@@H](C)c1ccc(C2CN(c3ccc(OCC4CC4)cc3)C2)cc1 [Example 3.25] |
| 2910 | CC(Cc1ccc(C2CN(c3ccc(OCC4CC4)cc3)C2)cc1)NC(=O)C1CCC1 (stereo not drawn) [Example 3.62] |
| 1330 | CC(F)C(=O)N[C@@H](C)c1ccc(C2CN(c3ccc(OCC4CC4)cc3)C2)cc1 (stereo partly drawn) [Example 3.55] |
| 400 | CC(=O)N[C@@H](C)c1ccc(C2CN(c3ncnc(OCC4CC4)c3F)C2)cc1 [Example 5.7] |
| 2580 | CCOCC(=O)N[C@@H](C)c1ccc(C2CN(c3ccc(OCC4CC4)cc3)C2)cc1 [Example 3.22] |
| 2440 | C[C@H](NC(=O)CCO)c1ccc(C2CN(c3ccc(OCC4CC4)cc3)C2)cc1 [Example 3.80] |
| 1670 | C[C@H](NC(=O)Cn1cncn1)c1ccc(C2CN(c3ccc(OCC4CC4)cc3)C2)cc1 [Example 3.29] |
| 1050 | CC(=O)Nc1nc(C)c(C(=O)NC(C)Cc2ccc(C3CN(c4ccc(OCC5CC5)cc4)C3)cc2)s1 (stereo not drawn) [Example 3.15] |
| 2730 | CC(Cc1ccc(C2CN(c3ccc(OCC4CC4)cc3)C2)cc1)NC(=O)C(F)F (stereo not drawn) [Example 3.12] |
| 2650 | COC1CC(C(=O)N[C@@H](C)c2ccc(C3CN(c4ccc(OCC5CC5)cc4)C3)cc2)C1 (stereo partly drawn) [Example 3.23] |
